Laboratory results taken from patent publication US9895422B2, “Combination of dopamine agonists plus first phase insulin secretagogues for the treatment of metabolic disorders” (VeroScience LLC, priority 2009, dated 2018).
Counter-ions that a name gives are not always drawn.

Assays:
[1] = tested on: Male Syrian hamsters known to develop insulin resistance and glucose intolerance; assay: Glucose tolerance test (GTT), similarly designed experiment with insulin as first phase insulin secretagogue; type: in vivo, Syrian hamster
Experimental: Male Syrian hamsters known to develop insulin resistance and glucose intolerance were purchased at 4 weeks of age and kept on rodent diet for 10 weeks at 72 degrees F. and a 14 hr:10 hr daily light:dark cycle. When animals were 14 weeks of age on this daily photoperiod (known to be insulin resistant and glucose intolerant under these conditions), bromocriptine mesylate was administered intraperitoneally (IP) for 2 weeks at 4 mg/kg per hamster 13 hours after light onset to half of the animals, while the other half received vehicle injections for 2 weeks.
After 2 weeks of treatment both Bromocriptine and vehicle groups were divided into two groups for a total of 4 groups: 1. Vehicle for 2 weeks and Vehicle at initiation of a glucose tolerance test (GTT); 2. […] Bromocriptine for 2 weeks and Vehicle at GTT; 4.
Blood was drawn from the jugular vein and blood glucose level was measured every 30 minutes for 2 hours after the glucose load administration.

[2] = tested on: Male Syrian hamsters known to develop insulin resistance and glucose intolerance; assay: Glucose tolerance test (GTT) after 2 weeks of bromocriptine, with or without Exendin-4 at the GTT; type: in vivo, Syrian hamster; conditions: bromocriptine mesylate 4 mg/kg IP for 2 weeks, vehicle at GTT; 3 g/kg glucose; P<0.09

Question: `CC(C)C[C@H]1C(=O)N2CCC[C@H]2[C@]2(O)O[C@](NC(=O)[C@@H]3C=C4c5cccc6[nH]c(Br)c(c56)C[C@H]4N(C)C3)(C(C)C)C(=O)N12` [Bromocriptine, bromocriptine mesylate] was tested. Which “reduction of glucose AUC over two hours after glucose administration” value ([1]; bromocriptine for 2 weeks, insulin experiment, P=0.23) did it give?
Answer: 28%

Question: And the “reduction of blood glucose Area Under Curve (AUC) during the GTT over two hours after glucose administration” value [2]?
Answer: 21%

Question: How did the “reduction of glucose AUC over two hours after glucose administration” value ([1]; insulin 240 ng/kg IP immediately prior to glucose administration, P=0.64) turn out when insulin was run?
Answer: not significantly reduced
